In patent US10774053B2, “HIV protease inhibitors” (Gilead Sciences, Inc., priority 2017, dated 2020):

What follows are compounds tested on HIV-1 (IIIB) in MT-4 cells (assay: microbe, parasite or virus in culture). Conditions: Human immunodeficiency virus 1, IIIB, MT4, MT-4 cells, HIV-1; read-out: MT4 EC50.
Assay type: cell-based

Structure (SMILES)	EC50
CC(C)(C)C[C@]1(c2ccc(-n3cnnn3)c(F)c2)NC(=N)N([C@H](COC(=O)NC2(C(F)(F)F)CC2)c2ccc(Cl)c(-n3ncnc3C(F)F)c2)C1=O [Compound 355]	24.6 nM
CC(C)(C)C[C@]1(c2ccc(-c3cnn(C(F)F)c3)cc2)NC(=N)N([C@H](COC(=O)NC2(C)CC2)c2ccc(Cl)c(-n3cncn3)c2)C1=O [Compound 237]	8.79 nM
CC(C)(C)C[C@]1(c2ccc(-c3cnn(C4CC4)n3)cc2)NC(=N)N([C@H](CNC(=O)CC(F)(F)F)c2ccc(Cl)c(-n3ncnc3C(F)F)c2)C1=O [Compound 383]	9.7 nM
[H]/N=C1\N[C@](CC(C)(C)C)(c2ccc(-c3cnn(C(F)F)c3)cc2)C(=O)N1[C@H](COC(N)=O)c1ccc(Cl)c(-c2c[nH]cn2)c1 [Compound 29]	228 nM
C[C@H](NC(=O)OC[C@H](c1ccc(Cl)c(-n2ncnc2C(F)F)c1)N1C(=N)N[C@](CC(C)(C)C)(c2ccc(-c3cnn(C4CC4)c3)cc2)C1=O)C(F)(F)F [Compound 234]	9.28 nM
CC(C)(C)C[C@]1(c2ccc(-c3cnn(C(F)F)c3)cc2)NC(=N)N([C@H](COC(=O)NC2CC2)c2ccc(Cl)c(-c3cc[nH]n3)c2)C1=O [Compound 24]	68.2 nM
CC(C)(C)C[C@]1(c2ccc(-c3cnn(C(F)F)c3)cc2)NC(=N)N([C@H](COC(=O)NC2(C(F)(F)F)CC2)c2cc(F)c(Cl)c(-n3ncnc3C(F)F)c2)C1=O [Compound 192]	61.9 nM
Cn1ncnc1-c1cc([C@@H](COC(=O)NC(C)(C)C(F)F)N2C(=N)N[C@](CC(C)(C)F)(c3ccc(-c4cnn(C(F)F)c4)cc3)C2=O)ccc1Cl [Compound 128]	85 nM
[H]/N=C1\N[C@](CC(C)(C)C)(c2ccc(-c3cnn(C(F)F)c3)cc2)C(=O)N1[C@H](COC(=O)NC1CC1)c1ccc(Cl)c(-c2nnc(C3CC3)s2)c1 [Compound 44]	246 nM
Cc1ncn(-c2cc([C@@H](COC(=O)NC3(C)CC3)N3C(=N)N[C@](CC(C)(C)C)(c4ccc(-c5cnn(C(F)F)c5)cc4)C3=O)ccc2Cl)n1 [Compound 238]	156 nM
CC(C)(C)C[C@]1(c2ccc(-c3cnn(C4CC4)n3)c(F)c2)NC(=N)N([C@H](COC(=O)NC2(C(F)(F)F)CC2)c2ccc(Cl)c(-n3ncnc3C(F)F)c2)C1=O [Compound 225]	17.4 nM
[H]/N=C1\N[C@](CC(C)(C)C)(c2ccc(-c3cnn(C(F)F)c3)cc2)C(=O)N1[C@H](COC(=O)NC1CC1)c1ccc(Cl)c(-c2ncns2)c1 [Compound 48]	80 nM
[H]/N=C1\N[C@](CC(C)(C)C)(c2ccc(-c3cnn(C(F)F)c3)cc2F)C(=O)N1[C@H](COC(=O)NC1CC1)c1ccc(Cl)c(-c2ncn[nH]2)c1 [Compound 11]	35.5 nM
CC(C)(F)C[C@]1(c2ccc(-c3ncccn3)cc2)NC(=N)N([C@H](COC(=O)NC(C)(C)C(F)F)c2ccc(Cl)c(-c3ncnn3C(F)F)c2)C1=O [Compound 127]	27.5 nM
CC(C)(C)C[C@]1(c2ccc(-c3cncs3)cc2)NC(=N)N([C@H](COC(=O)NC2(C(F)(F)F)CC2)c2ccc(Cl)c(-n3ncnc3C(F)F)c2)C1=O [Compound 277]	6.99 nM
CC(C)(C)C[C@]1(c2ccc(-c3cnn(C(F)F)c3)cc2)NC(=N)N([C@H](COC(=O)NC2(C)CC2)c2cc(-n3cncn3)c(Cl)cn2)C1=O [Compound 269]	62.4 nM
CC(C)(C)C[C@]1(c2ccc(-c3cnn(C4CC4)c3)cc2F)NC(=N)N([C@H](COC(=O)NC2(C(F)(F)F)CC2)c2ccc(Cl)c(-n3ncnc3C(F)F)c2)C1=O [Compound 209]	14.7 nM
CC(C)(C)C[C@]1(c2ccc(-c3cnn(C(F)F)c3)cc2)NC(=N)N([C@H](COC(=O)NC2COC2)c2ccc(Cl)c(-c3ncn[nH]3)c2)C1=O [Compound 94]	341 nM

Structure (SMILES)	EC50
CC1(NC(=O)OC[C@H](c2ccc(Cl)c(-c3ncnn3C(F)F)c2)N2C(=N)N[C@](CC(C)(C)C(F)(F)F)(c3ccc(-c4cnn(C5CC5)n4)cc3)C2=O)CC1 [Compound 157]	7.64 nM
CC(C)(C)C[C@]1(c2ccc(-c3cnn(C(F)F)c3)cc2)NC(=N)N([C@H](COC(=O)N2CC(C(F)F)C2)c2ccc(Cl)c(-c3ncn[nH]3)c2)C1=O [Compound 99]	65.7 nM
CC(C)(C)C[C@]1(c2ccc(-c3cnn(C4CC4)c3)cc2)NC(=N)N([C@H](COC(=O)NC2CC2)c2ccc(Cl)c(-n3cncn3)c2)C1=O [Compound 243]	9.11 nM
CC(C)(C)C[C@]1(c2ccc(-c3cnc(C(F)(F)F)nc3)cc2)NC(=N)N([C@H](COC(=O)NC2(C(F)(F)F)CC2)c2ccc(Cl)c(-c3ncnn3C(F)F)c2)C1=O [Compound 122]	25.4 nM
CC(C)(C)C[C@]1(c2ccc(-c3cnn(C(F)F)c3)cc2)NC(=N)N([C@H](COC(=O)N(CC(F)(F)F)C2CC2)c2ccc(Cl)c(-c3ncn[nH]3)c2)C1=O [Compound 95]	30.4 nM
C[C@@H](C(=O)NC[C@H](c1ccc(Cl)c(-n2ncnc2C(F)F)c1)N1C(=N)N[C@](CC(C)(C)C)(c2ccc(-c3cnn(C4CC4)n3)cc2)C1=O)C(F)(F)F [Compound 386]	23.4 nM
CC(C)C(=O)NC[C@H](c1ccc(Cl)c(-n2ncnc2C(F)F)c1)N1C(=N)N[C@](CC(C)(C)C(F)(F)F)(c2ccc(-c3cnn(C4CC4)n3)cc2)C1=O [Compound 388]	16.9 nM
CC(C)(C)C[C@]1(c2ccc(-c3ccccn3)cc2)NC(=N)N([C@H](COC(=O)NC(C)(C)C)c2ccc(Cl)c(-n3ncnc3C(F)F)c2)C1=O [Compound 191]	9.69 nM
CC(C)(F)C[C@]1(c2ccc(-c3cnn(C4CC4)c3)cc2F)NC(=N)N([C@H](COC(=O)NC(C)(C)C(F)F)c2ccc(Cl)c(-c3ncnn3C(F)F)c2)C1=O [Compound 133]	35.1 nM
C[C@H](NC(=O)OC[C@H](c1ccc(Cl)c(-n2ncnc2C(F)F)c1)N1C(=N)N[C@](CC(C)(C)C)(c2ccc(-c3cn(C4CC4)nn3)cc2)C1=O)C(F)(F)F [Compound 233]	13.6 nM
CC(C)(C)C[C@]1(c2ccc(C#CC(C)(C)S(C)(=O)=O)cc2)NC(=N)N([C@H](COC(=O)NC(C)(C)C(F)F)c2ccc(Cl)c(-n3cncn3)c2)C1=O [Compound 377]	90.7 nM
CC(C)(C)C[C@]1(c2ccc(-n3nccn3)c(F)c2)NC(=N)N([C@H](COC(=O)NC2(C(F)(F)F)CC2)c2ccc(Cl)c(-n3ncnc3C(F)F)c2)C1=O [Compound 309]	13.4 nM
CC(C)(C)C[C@]1(c2ccc(-c3ncccn3)cc2)NC(=N)N([C@H](COC(=O)NC(C)(C)C(F)(F)F)c2ccc(Cl)c(-n3ncnc3C(F)F)c2)C1=O [Compound 189]	9.12 nM
CC(C)(C)C[C@]1(c2ccc(-c3cnn(C(F)F)c3)cc2)NC(=N)N([C@H](COC(=O)NC2(C(F)(F)F)CC2)c2ccc(Cl)c(-n3cccn3)c2)C1=O [Compound 255]	22.7 nM
Cn1nnnc1-c1ccc([C@@]2(CC(C)(C)C)NC(=N)N([C@H](COC(=O)NC3(C(F)(F)F)CC3)c3ccc(Cl)c(-n4ncnc4C(F)F)c3)C2=O)cc1 [Compound 358]	76.2 nM
CC(C)(C)C[C@]1(c2ccc(-c3ncccn3)cc2)NC(=N)N([C@H](COC(=O)NC2(C(F)(F)F)CC2)c2ccc(Cl)c(-c3ncnn3C(F)F)c2)C1=O [Compound 117]	6.81 nM
CC(C)(C)C[C@]1(c2ccc(-c3cnn(C4CC4)c3)c(F)c2)NC(=N)N([C@H](COC(=O)NCC(F)(F)F)c2ccc(Cl)c(-n3ncnc3C(F)F)c2)C1=O [Compound 307]	12.7 nM

Same assay, conditions: Human immunodeficiency virus 1, IIIB, MT4, read-out: MT4 EC50 (nM)

Structure (SMILES)	EC50
CC(C)(C)C[C@]1(c2ccc(-c3cnn(C(F)F)c3)cc2)NC(=N)N([C@H](COC(=O)NC2(C(F)(F)F)CC2)c2ccc(Cl)c(-c3ncn[nH]3)c2)C1=O [Compound 25]	52.7 nM
